This is an account of results in ChEMBL document CHEMBL1148868, “Isoform selective inhibition of STAT1 or STAT3 homo-dimerization via peptidomimetic probes: structural recognition of STAT SH2 domains” (Bioorg Med Chem Lett, 2007).

Test [1] concerns the target Signal transducer and activator of transcription 3 (Homo sapiens, UniProt P40763). The test is described as follows: Inhibition of STAT3 dimer DNA binding activity after 30 mins.
Test [2] has as its target T1, Signal transducer and activator of transcription 1-alpha/beta (Homo sapiens) (UniProt P42224).
T1 sequence (whole entry): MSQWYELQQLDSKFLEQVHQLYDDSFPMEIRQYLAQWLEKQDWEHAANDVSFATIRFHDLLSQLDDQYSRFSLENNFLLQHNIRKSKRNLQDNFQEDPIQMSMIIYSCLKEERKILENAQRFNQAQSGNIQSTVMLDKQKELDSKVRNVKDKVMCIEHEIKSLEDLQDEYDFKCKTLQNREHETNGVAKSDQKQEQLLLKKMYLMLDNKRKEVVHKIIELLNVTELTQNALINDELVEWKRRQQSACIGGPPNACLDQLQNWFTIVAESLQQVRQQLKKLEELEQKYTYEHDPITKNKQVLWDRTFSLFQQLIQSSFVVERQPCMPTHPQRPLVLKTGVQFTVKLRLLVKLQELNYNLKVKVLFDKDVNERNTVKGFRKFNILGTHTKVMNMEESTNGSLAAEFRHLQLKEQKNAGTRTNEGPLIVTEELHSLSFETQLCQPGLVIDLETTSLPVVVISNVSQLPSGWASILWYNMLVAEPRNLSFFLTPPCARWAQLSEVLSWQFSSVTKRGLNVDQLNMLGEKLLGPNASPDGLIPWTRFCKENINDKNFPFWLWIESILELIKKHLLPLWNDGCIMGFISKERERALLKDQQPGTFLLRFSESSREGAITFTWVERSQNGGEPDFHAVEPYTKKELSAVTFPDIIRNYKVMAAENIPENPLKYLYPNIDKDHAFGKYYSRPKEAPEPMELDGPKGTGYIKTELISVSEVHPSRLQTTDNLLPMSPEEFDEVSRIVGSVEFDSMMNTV
The test is described as follows: (§1) Inhibition of STAT1 dimer DNA binding activity after 30 mins. The format is functional.

Test [3] addresses T2, Signal transducer and activator of transcription 1-alpha/beta (Homo sapiens, UniProt P42224).
T2 sequence (P42224 whole entry): T1 sequence (whole entry)
The test is described as §1. It is filed as functional.

Active and inactive are the calls of the source. The rule behind the calls is not given here.

Chain of Signal transducer and activator of transcription 3 (P40763 whole entry): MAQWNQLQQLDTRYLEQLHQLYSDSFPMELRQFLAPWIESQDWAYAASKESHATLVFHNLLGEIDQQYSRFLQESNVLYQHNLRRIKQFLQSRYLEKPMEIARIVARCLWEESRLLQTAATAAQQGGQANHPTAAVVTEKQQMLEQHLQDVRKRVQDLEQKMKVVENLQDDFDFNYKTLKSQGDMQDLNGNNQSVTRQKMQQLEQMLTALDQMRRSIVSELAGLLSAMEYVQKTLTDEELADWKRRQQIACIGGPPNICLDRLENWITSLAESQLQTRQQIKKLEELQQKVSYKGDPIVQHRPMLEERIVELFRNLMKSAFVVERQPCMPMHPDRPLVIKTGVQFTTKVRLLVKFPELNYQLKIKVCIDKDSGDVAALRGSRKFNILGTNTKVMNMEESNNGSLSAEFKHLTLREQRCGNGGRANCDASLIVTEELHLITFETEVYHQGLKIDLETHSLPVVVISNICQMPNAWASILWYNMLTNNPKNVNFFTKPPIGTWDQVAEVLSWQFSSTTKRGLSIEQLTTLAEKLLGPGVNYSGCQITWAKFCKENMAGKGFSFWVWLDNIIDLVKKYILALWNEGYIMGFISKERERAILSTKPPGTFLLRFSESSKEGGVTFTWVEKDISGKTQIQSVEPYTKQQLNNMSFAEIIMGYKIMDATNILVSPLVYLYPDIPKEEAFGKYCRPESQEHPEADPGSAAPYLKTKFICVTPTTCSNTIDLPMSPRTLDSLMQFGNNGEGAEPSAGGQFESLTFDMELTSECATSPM

In the case of `COC(=O)[C@H](CC(C)C)NC(=O)[C@H](Cc1ccc(OP(=O)(O)O)cc1)NC(=O)c1ccc(C#N)cc1`, the result in test [1] and in test [2] was inactive.

Turning to `CC(C)CNC(=O)[C@H](CC(C)C)NC(=O)[C@H](Cc1ccc(OP(=O)(O)O)cc1)NC(=O)c1ccc(C#N)cc1` (stereo in doubt; form 2), the IC50 in test [1] was 74 µM; in test [3], 250 µM.

`Cc1cccc(NC(=O)[C@H](CC(C)C)NC(=O)[C@H](Cc2ccc(OP(=O)(O)O)cc2)NC(=O)c2ccc(C#N)cc2)c1`: the outcome in test [1] and in test [2] was inactive.

Turning to `CC(C)C[C@H](NC(=O)[C@H](Cc1ccc(OP(=O)(O)O)cc1)NC(=O)c1ccc(C#N)cc1)C(=O)NCc1cccnc1`, the result in test [1] and in test [2] was inactive.

Regarding `COc1cccc(NC(=O)[C@H](CC(C)C)NC(=O)[C@H](Cc2ccc(OP(=O)(O)O)cc2)NC(=O)c2ccc(C#N)cc2)c1`, the 50% inhibitory concentration (IC50) came to 31 µM in test [1] and 560 µM in test [3].

Take `CC(C)C[C@H](NC(=O)[C@H](Cc1ccc(OP(=O)(O)O)cc1)NC(=O)c1ccc(C#N)cc1)C(=O)NCc1ccncc1`: the IC50 was 123 µM in test [1] and 402 µM in test [3].

Turning to `CC(C)C[C@H](NC(=O)[C@H](Cc1ccc(OP(=O)(O)O)cc1)NC(=O)c1ccc(C#N)cc1)C(=O)NC1CCCCC1`, the results for the IC50 in test [1] and in test [3] were 58 µM and 605 µM, respectively.

For `CC(C)C[C@H](NC(=O)[C@H](Cc1ccc(OP(=O)(O)O)cc1)NC(=O)c1ccc(C#N)cc1)C(=O)NCCCO`, the IC50 in test [1] was 620 µM; in test [3], 210 µM.

With `CC(C)CNC(=O)[C@H](CC(C)C)NC(=O)[C@H](Cc1ccc(OP(=O)(O)O)cc1)NC(=O)c1ccc(C#N)cc1` (stereo in doubt; form 1), the IC50 in test [1] turned out to be 58 µM; in test [3] it was 760 µM.

With `CC(C)C[C@H](NC(=O)[C@H](Cc1ccc(OP(=O)(O)O)cc1)NC(=O)c1ccc(C#N)cc1)C(=O)NCc1ccccc1`, the results for the IC50 in test [1] and in test [3] were 800 µM and 760 µM, respectively.

On to `CC(C)C[C@H](NC(=O)[C@H](Cc1ccc(OP(=O)(O)O)cc1)NC(=O)c1ccc(C#N)cc1)C(=O)Nc1ccccc1`, for which the IC50 in test [1] was 310 µM; in test [3] it was 380 µM.

A word on the IC50: it is the point on the concentration scale where inhibition reaches its midpoint. Higher therefore signals weaker potency.
